How the values were obtained:
SCLC = conditions: second-line treatment, patients with SCLC; cited from earlier work
CFU-GM assay = assay type: cell-based; conditions: human, human bone marrow mononuclear cells
R/R-PTCL = conditions: cited from earlier work

Row | Structure (SMILES) | overall response rate (SCLC) [%] | IC90 (CFU-GM assay) [nM] | progression-free survival compared to investigator-selected single-agent comparators (R/R-PTCL)
1 | COc1ccc2[nH]c3c(c2c1)CCN[C@]31CS[C@@H]2c3c(OC(C)=O)c(C)c4c(c3[C@H](COC1=O)N1[C@@H]2[C@H]2c3c(cc(C)c(OC)c3O)C[C@@H]([C@@H]1O)N2C)OCO4 [lurbinectedin] | 35.2 |  | 
2 | COc1cc(Nc2ncc3c(n2)-c2ccc(Cl)cc2C(c2c(F)cccc2OC)=NC3)ccc1C(=O)O [Alisertib] |  | 252 | failed to improve the progression-free survival

Reference: paper PMC11097369 (ACS Omega, 2024)
